This note sets out measurements from patent US20230265151A1, “GIP/GLP1 CO-AGONIST COMPOUNDS” (priority 2020, published 2023).

Like-named read-outs stand apart in the source and are kept apart here.

Format in all cases: cell-based
Assay [1] has as its target T1, hGIPR (Homo sapiens, UniProt P48546).
T1 construct: expressed in transfected cells
T1 sequence (P48546 22-466): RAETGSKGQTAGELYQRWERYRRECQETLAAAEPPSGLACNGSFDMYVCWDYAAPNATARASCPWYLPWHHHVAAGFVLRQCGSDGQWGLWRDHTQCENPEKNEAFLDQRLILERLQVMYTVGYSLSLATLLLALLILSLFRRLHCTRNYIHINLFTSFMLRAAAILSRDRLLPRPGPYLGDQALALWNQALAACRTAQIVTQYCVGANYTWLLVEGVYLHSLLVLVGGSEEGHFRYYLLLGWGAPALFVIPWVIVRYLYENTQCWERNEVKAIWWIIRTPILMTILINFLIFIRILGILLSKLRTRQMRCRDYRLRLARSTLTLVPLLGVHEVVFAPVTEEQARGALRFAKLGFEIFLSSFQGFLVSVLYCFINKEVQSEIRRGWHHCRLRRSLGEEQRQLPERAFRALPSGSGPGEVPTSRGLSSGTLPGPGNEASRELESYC
Kind of assay: Functional cAMP formation (HTRF) in HEK-293 clonal cells expressing hGIPR, 0.1% bovine casein, without or with 1.0% human serum albumin. The following applies: for EC50: geometric mean. The method in brief:
(§1)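 Cells were stimulated with peptide for 30 min at 37° C, then intracellular cAMP was measured by competitive HTRF (665/620 nm ratio) and converted to nM using a cAMP standard curve. Relative EC50 and Emax came from four-parameter logistic fits of percent maximal response against peptide concentration.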
In general terms: cAMP levels reflect the balance of adenylyl cyclase and phosphodiesterase activity.

Assay [2] concerns the target T2, hGCGR (Homo sapiens, UniProt P47871).
T2 construct: expressed in transfected cells
Kind of assay: Functional cAMP formation (HTRF) in HEK-293 clonal cells expressing hGCGR, 0.1% bovine casein, without or with 1.0% human serum albumin. In short, it runs like this: as §1

Assay [3] concerns the target hGLP-1R (Homo sapiens, UniProt P43220). Kind of assay: Functional cAMP formation (HTRF) in HEK-293 clonal cells expressing hGLP-1R, 0.1% bovine casein, without or with 1.0% human serum albumin. On the set-up: expressed in transfected cells. The method in brief: as §1
The mark [4] stands for this setting: cAMP, incubated at 37° C., 0.1% bovine casein (no human serum albumin), geometric mean, read-out: hGCGR EC50, nM (SEM, n).
Setting [5] is: HEK293, percent of maximal response to GLP-1(7-36)NH2, 37° C., 0.1% bovine casein, arithmetic mean, read-out: hGLP-1R Emax, % ± SEM.

T2 sequence (P47871 26-477): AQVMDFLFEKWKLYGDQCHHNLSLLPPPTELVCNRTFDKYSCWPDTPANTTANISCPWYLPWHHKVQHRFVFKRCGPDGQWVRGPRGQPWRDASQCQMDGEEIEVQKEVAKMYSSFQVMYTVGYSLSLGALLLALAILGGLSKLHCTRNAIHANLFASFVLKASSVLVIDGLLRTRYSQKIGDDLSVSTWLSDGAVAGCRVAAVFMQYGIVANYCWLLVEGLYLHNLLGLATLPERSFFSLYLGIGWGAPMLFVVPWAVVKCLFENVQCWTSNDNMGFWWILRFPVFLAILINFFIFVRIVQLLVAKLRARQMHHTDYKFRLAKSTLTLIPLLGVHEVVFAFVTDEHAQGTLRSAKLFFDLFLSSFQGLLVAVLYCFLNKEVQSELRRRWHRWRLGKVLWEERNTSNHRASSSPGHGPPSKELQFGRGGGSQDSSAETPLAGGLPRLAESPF
Sequence of hGLP-1R (P43220 24-463): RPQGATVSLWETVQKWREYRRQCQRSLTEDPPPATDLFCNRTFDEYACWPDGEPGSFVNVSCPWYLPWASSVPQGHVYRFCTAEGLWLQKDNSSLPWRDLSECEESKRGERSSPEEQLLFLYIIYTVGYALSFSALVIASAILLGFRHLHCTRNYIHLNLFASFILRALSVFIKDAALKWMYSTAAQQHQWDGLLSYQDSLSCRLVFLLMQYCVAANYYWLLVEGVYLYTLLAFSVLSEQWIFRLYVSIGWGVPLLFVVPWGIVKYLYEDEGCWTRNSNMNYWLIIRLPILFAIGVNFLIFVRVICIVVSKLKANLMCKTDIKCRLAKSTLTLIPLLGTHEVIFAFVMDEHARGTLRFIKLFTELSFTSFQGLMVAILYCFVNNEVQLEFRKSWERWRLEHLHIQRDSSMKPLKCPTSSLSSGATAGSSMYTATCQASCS

Turning to `CC[C@H](C)[C@H](NC(=O)[C@H](CC(C)C)NC(=O)[C@](C)(Cc1ccc(O)cc1)NC(=O)[C@@H](CCC(=O)O)NC(=O)[C@@H](NC(=O)[C@H](CC1CCCCC1)NC(=O)[C@H](CCC(=O)O)NC(=O)C(C)(C)NC(=O)[C@H](CCC(N)=O)NC(=O)[C@H](C)NC(=O)[C@H](CCCCNC(=O)COCCOCCNC(=O)COCCOCCNC(=O)CC[C@H](NC(=O)CCCCCCCCCCCCC(=O)O)C(=O)O)NC(=O)[C@H](CCCN)NC(=O)[C@H](CC(=O)O)NC(=O)[C@H](CC(C)C)NC(=O)[C@](C)(CC(C)C)NC(=O)[C@@H](NC(=O)[C@H](CO)NC(=O)[C@H](Cc1ccncc1)NC(=O)[C@H](CC(=O)O)NC(=O)[C@H](CO)NC(=O)[C@@H](NC(=O)[C@](C)(Cc1ccccc1F)NC(=O)[C@@H](NC(=O)CNC(=O)[C@H](CCC(=O)O)NC(=O)C(C)(C)NC(=O)[C@@H](N)Cc1ccc(O)cc1)[C@@H](C)O)[C@@H](C)O)[C@@H](C)CC)[C@@H](C)CC)C(=O)N[C@@H](CCC(=O)O)C(=O)NCC(=O)NCC(=O)N[C@@H](CCCCNC(=O)COCCOCCNC(=O)COCCOCCNC(=O)CC[C@H](NC(=O)CCCCCCCCCCCCC(=O)O)C(=O)O)C(=O)N[C@@H](CO)C(=O)N[C@@H](CO)C(=O)NCC(=O)N[C@@H](C)C(=O)N1CCC[C@H]1C(=O)N1CCC[C@H]1C(=O)N1CCC[C@H]1C(=O)N[C@@H](CO)C(N)=O` [Example 148], the EC50 (in general, the concentration needed to bring the measured effect to its halfway point) in assay [1] (cAMP, incubated at 37° C., 0.1% bovine casein (no human serum albumin), read-out: hGIPR EC50, nM (SEM, n)) is 0.0209 nM; in assay [2] (setting [4]), greater than 9950 nM. Also, in assay [3] (setting [5]), the Emax (in general, the maximal effect, on the per cent scale that the assay sets) is 94.5%.

Take `CC[C@H](C)[C@H](NC(=O)[C@H](CCCN)NC(=O)[C@H](CC(=O)O)NC(=O)[C@H](CC(C)C)NC(=O)[C@](C)(CC(C)C)NC(=O)[C@@H](NC(=O)C(C)(C)NC(=O)[C@@H](NC(=O)[C@H](CC(=O)O)NC(=O)[C@H](CO)NC(=O)[C@@H](NC(=O)[C@](C)(Cc1ccccc1F)NC(=O)[C@@H](NC(=O)CNC(=O)[C@H](CCC(=O)O)NC(=O)C(C)(C)NC(=O)[C@@H](N)Cc1ccc(O)cc1)[C@@H](C)O)[C@@H](C)O)C(C)C)[C@@H](C)CC)C(=O)N[C@@H](C)C(=O)N[C@@H](CCC(N)=O)C(=O)NC(C)(C)C(=O)N[C@@H](CCCN)C(=O)N[C@@H](Cc1ccccc1)C(=O)N[C@H](C(=O)N[C@@H](CCCCNC(=O)COCCOCCNC(=O)COCCOCCNC(=O)CC[C@H](NC(=O)CCCCCCCCCOc1ccc(C(=O)O)cc1)C(=O)O)C(=O)N[C@@](C)(Cc1ccc(O)cc1)C(=O)N[C@@H](CC(C)C)C(=O)N[C@H](C(=O)N[C@@H](CCCCNC(=O)COCCOCCNC(=O)COCCOCCNC(=O)CC[C@H](NC(=O)CCCCCCCCCOc1ccc(C(=O)O)cc1)C(=O)O)C(=O)NCC(=O)NCC(=O)N1CCC[C@H]1C(=O)N[C@@H](CO)C(=O)N[C@@H](CO)C(=O)NCC(=O)N[C@@H](C)C(=O)N1CCC[C@H]1C(=O)N1CCC[C@H]1C(=O)N1CCC[C@H]1C(=O)N[C@@H](CO)C(N)=O)[C@@H](C)CC)[C@@H](C)CC` [Example 356]: the Emax in assay [1] (HEK293, read-out: hGIPR Emax, % ± SEM, cAMP, 37° C., 0.1% bovine casein and 1.0% human serum albumin, percent of maximal response to GIP(1-42)NH2) is 82.7%; in assay [1] (HEK293, read-out: hGIPR Emax, % ± SEM, cAMP, 37° C., 0.1% bovine casein, percent of maximal response to GIP(1-42)NH2, arithmetic mean), 96.2%; in assay [3] (HEK293, read-out: hGLP-1R Emax, % ± SEM, cAMP, 37° C., 0.1% bovine casein and 1.0% human serum albumin, percent of maximal response to GLP-1(7-36)NH2) it was 93%. The EC50 in assay [1] (hGIPR EC50, nM (SEM, n), cAMP, 37° C., 0.1% bovine casein (no human serum albumin)) is 0.0488 nM; in assay [2] (hGCGR EC50, nM (SEM, n), cAMP, 37° C., 0.1% bovine casein (no human serum albumin), geometric mean) it was greater than 9950 nM; in assay [2] (hGCGR EC50, nM (SEM, n), cAMP, 37° C., 0.1% bovine casein and 1.0% human serum albumin, geometric mean (SEM, n)), greater than 9950 nM; in assay [3] (hGLP-1R EC50, nM (SEM, n), cAMP, 37° C., 0.1% bovine casein (no human serum albumin), geometric mean), 0.936 nM; in assay [3] (hGLP-1R EC50, nM (SEM, n), cAMP, 37° C., 0.1% bovine casein and 1.0% human serum albumin, geometric mean (SEM, n)) it was 23.4 nM.

Consider `CC[C@H](C)[C@H](NC(=O)[C@H](CC(C)C)NC(=O)[C@](C)(Cc1ccc(O)cc1)NC(=O)[C@@H](CCC(=O)O)NC(=O)[C@@H](NC(=O)[C@H](Cc1ccccc1)NC(=O)[C@H](CCC(=O)O)NC(=O)C(C)(C)NC(=O)[C@H](CCC(N)=O)NC(=O)[C@H](C)NC(=O)[C@H](CCCCNC(=O)COCCOCCNC(=O)COCCOCCNC(=O)COCCOCCNC(=O)CC[C@H](NC(=O)CCCCCCCCCCCCC(=O)O)C(=O)O)NC(=O)[C@H](CCCN)NC(=O)[C@H](CC(=O)O)NC(=O)[C@H](CC(C)C)NC(=O)[C@](C)(CC(C)C)NC(=O)[C@@H](NC(=O)[C@H](CO)NC(=O)[C@H](Cc1ccncc1)NC(=O)[C@H](CC(=O)O)NC(=O)[C@H](CO)NC(=O)[C@@H](NC(=O)[C@](C)(Cc1ccccc1F)NC(=O)[C@@H](NC(=O)CNC(=O)[C@H](CCC(=O)O)NC(=O)C(C)(C)NC(=O)[C@@H](N)Cc1ccc(O)cc1)[C@@H](C)O)[C@@H](C)O)[C@@H](C)CC)[C@@H](C)CC)C(=O)N[C@@H](CCC(=O)O)C(=O)NCC(=O)NCC(=O)N1CCC[C@H]1C(=O)N[C@@H](CO)C(=O)N[C@@H](CO)C(=O)NCC(=O)N[C@@H](C)C(=O)N1CCC[C@H]1C(=O)N1CCC[C@H]1C(=O)N1CCC[C@H]1C(=O)N[C@@H](CO)C(=O)N[C@@H](CCCCNC(=O)COCCOCCNC(=O)COCCOCCNC(=O)COCCOCCNC(=O)CC[C@H](NC(=O)CCCCCCCCCCCCC(=O)O)C(=O)O)C(N)=O` [Example 225], for which the EC50 was 1.81 nM in assay [1] (0.1% bovine casein and 1.0% human serum albumin, 37° C., read-out: hGIPR EC50, nM (SEM, n)); greater than 9950 nM in assay [2] (0.1% bovine casein and 1.0% human serum albumin, 37° C., geometric mean, read-out: hGCGR EC50, nM (SEM, n)); greater than 9950 nM in assay [2] (setting [4]); 51.6 nM in assay [3] (0.1% bovine casein and 1.0% human serum albumin, 37° C., geometric mean, read-out: hGLP-1R EC50, nM (SEM, n)). Further, the Emax stood at 67.5% in assay [1] (HEK293, 0.1% bovine casein and 1.0% human serum albumin, 37° C., percent of maximal response to GIP(1-42)NH2, read-out: hGIPR Emax, % ± SEM); 105% in assay [1] (HEK293, percent of maximal response to GIP(1-42)NH2, 37° C., 0.1% bovine casein, arithmetic mean, read-out: hGIPR Emax, % ± SEM); 92.1% in assay [3] (setting [5]).

For `CC[C@H](C)[C@H](NC(=O)[C@H](CC(C)C)NC(=O)[C@](C)(Cc1ccc(O)cc1)NC(=O)[C@@H](CCC(=O)O)NC(=O)[C@@H](NC(=O)[C@H](Cc1ccccc1)NC(=O)[C@H](CCC(=O)O)NC(=O)C(C)(C)NC(=O)[C@H](CCC(N)=O)NC(=O)[C@H](C)NC(=O)[C@H](CCCCNC(=O)COCCOCCNC(=O)COCCOCCNC(=O)CC[C@H](NC(=O)CCCCCCCCCOc1ccc(C(=O)O)cc1)C(=O)O)NC(=O)[C@H](CCCN)NC(=O)[C@H](CC(=O)O)NC(=O)[C@H](CC(C)C)NC(=O)[C@](C)(CC(C)C)NC(=O)[C@@H](NC(=O)C(C)(C)NC(=O)[C@H](Cc1ccc(O)cc1)NC(=O)[C@H](CC(=O)O)NC(=O)[C@H](CO)NC(=O)[C@@H](NC(=O)[C@](C)(Cc1ccccc1F)NC(=O)[C@@H](NC(=O)CNC(=O)[C@H](CCC(=O)O)NC(=O)C(C)(C)NC(=O)[C@@H](N)Cc1ccc(O)cc1)[C@@H](C)O)[C@@H](C)O)[C@@H](C)CC)[C@@H](C)CC)C(=O)N[C@@H](CCC(=O)O)C(=O)NCC(=O)NCC(=O)N1CCC[C@H]1C(=O)N[C@@H](CO)C(=O)N[C@@H](CO)C(=O)NCC(=O)N[C@@H](C)C(=O)N1CCC[C@H]1C(=O)N1CCC[C@H]1C(=O)N1CCC[C@H]1C(=O)N[C@@H](CO)C(=O)N[C@@H](CCCCNC(=O)COCCOCCNC(=O)COCCOCCNC(=O)CC[C@H](NC(=O)CCCCCCCCCOc1ccc(C(=O)O)cc1)C(=O)O)C(N)=O` [Example 238], the Emax in assay [1] (HEK293, read-out: hGIPR Emax, % ± SEM, 0.1% bovine casein and 1.0% human serum albumin, 37° C., percent of maximal response to GIP(1-42)NH2) is 90.5%. Besides, the EC50 in assay [1] (hGIPR EC50, nM (SEM, n), cAMP, incubated at 37° C., 0.1% bovine casein (no human serum albumin)) was 0.0214 nM; in assay [2] (hGCGR EC50, nM (SEM, n), 0.1% bovine casein and 1.0% human serum albumin, 37° C., geometric mean) it was greater than 9950 nM; in assay [2] (hGCGR EC50, nM (SEM, n), cAMP, incubated at 37° C., 0.1% bovine casein (no human serum albumin), geometric mean), greater than 9950 nM; in assay [3] (hGLP-1R EC50, nM (SEM, n), 0.1% bovine casein and 1.0% human serum albumin, 37° C., geometric mean), 27.2 nM; in assay [3] (hGLP-1R EC50, nM (SEM, n), cAMP, incubated at 37° C., 0.1% bovine casein (no human serum albumin), geometric mean) it was 1.03 nM.
